Source: US12102685B2, “Immodulator peptides covalently modified with small molecules” (priority 2020, dated 2024)
Marks after values point to notes of the source that are not given here. Peptide text beside a SMILES is read from it.

Legend:
[1] = Alexa488-SA-labelled IM3 binding to metal-charged NTA-coated plate (x2B c)
Procedure: (§1) NTA-metal-affinity fluorescence assay was performed using 96-well NTA-metal-coated plates readily available from commercial sources such as Qiagen (Germantown, MD). NTA was charged with ferrous or ferric iron, zinc, copper, calcium, vanadium, ruthenium, cobalt, titanium, manganese or other metals. 400 ng of FITC-labeled immodulator peptide (or biotinylated immodulator peptide complexed to Alexa-488-labeled streptavidin) in PBS buffer was added per plate. After incubation at room temperature for 60 minutes, excess peptide was washed off and peptide was detected by measuring fluorescence (excitation 490 nm, emmission 525 nm) in a fluorometer. • (a) Using FITC-labeled IM3 peptide (1 ug/well) in the fluorescent binding assay: • EDTA-treated control: 2,251±1,186 • Ferrous iron: 170,441±11,264 (p<0.001)* • Copper: 13,644±5566 (p<0.05)* • Calcium: 48,822±11,990 (p<0.01)* • *p values are relative to EDTA-treated control • (b) Competition binding assay to ferrous iron, calcium, copper and zinc-charged NTA-coated plates using FITC-labeled IM3 peptide (0.5 uM) and 8× (4 uM) unlabelled competitor peptides IM3N1, IM3N2 (*all comparisons to PBS control are p<0.01); # fluorescent value of binding to […] was set at 100.
• (c) Alexa488-SA-labelled immodulator peptide IM3 (400 ng/well) bound to NTA-coated plate charged with the indicated metals: # fluorescent value of binding to ferrous iron was set at 100. *p<0.01 relative to control.
Ferrous iron # (100±2.6*); Control (no metal): 6.4±3.1; Ferric iron: 94.1±6.6*; Calcium: 47.6±3.7*; Vanadium: 53.9±5.5*; Manganese: 54.4±11.2*; Cobalt: 25.4±2.3*; Copper: 58.4±6.4*; Zinc: 71.4±8.3*; Ruthenium: 67.8±8.3*; (d) Alexa488-SA-labelled immodulator peptide IM1, IM2, IM3, IM4, IM5, IM6 (400 ng/well) were bound to NTA-coated plate charged with the indicated metals: # background (no peptide) control set to 1.0;*p<0.05, **p<0.01 vs “no peptide”

[2] = NTA-metal-affinity fluorescence assay, FITC-labeled IM3 (x2B a); assay type: binding; conditions: FITC-labeled IM3 1 ug/well
Procedure: as §1

THP1-Dual monocytes = experiment: Succinic acid in THP1-Dual supernatant (x4A); assay type: cell-based
Procedure: (§2) Immune modulation functions of immodulator peptides were measured using the monocyte reporter cell line THP1-Dual (Invivogen, San Diego, CA), which provides convenient readouts for STING and NF-kappa-B pathways. Optionally, succinic acid, cytokine and chemokine production were also measured. THP1-Dual cell line was obtained from Invivogen. Cells were grown in a T-75 flask in RPMI Medium containing 20% fetal bovine serum, blasticidin ([…]), zeocin ([…]) and penicillin-streptomycin at 37° C. in a humidified, 5% CO2 incubator. Cells ([…], 8,000 cells/well) were plated in a 96-well plate and incubated overnight at 37 °C in a humidified, 5% CO2 incubator. Next day, […] of compounds were added (quadruplicate wells). After 24 hour incubation with the compound, supernatants were harvested and stored at 4° C. prior to assay.
(§3) STING activity using reagents QuantiBlu and QuantiLuc respectively, according to the manufacturer's recommendations (Invivogen, San Diego, CA). Succinic acid was measured by using a kit from Megazyme Inc (Cambridge, MA). Control value of activity was set to 100 in each assay. […] PAM3C=25 ng/ml PAM3CSK4 (TLR1/2 inducer); Poly(I:C)=10 ug/ml (TLR3 inducer); PAM2C=25 ng/ml PAM2CSK4 (TLR2/6 inducer); KIN14=4 uM KIN-1400 (RIG-I inducer); cytB=1 uM cytosporone B (Nur77 inducer); C-178=1 uM STING inhibitor; NFkBi=50 ug/ml NFkB inhibitor peptide; SB2021=10 uM p38MAPK inhibitor; *p<0.05, **p<0.01 vs IM3 control; #p<0.01 vs “no inducer” control; SUCC=succinic acid; nd=not done; Peptide was added to cells at 400 nM.
(§4) Peptides were added to cells at 400 nM. […]

NF-kappa-B (NFkB) = experiment: THP1-Dual monocyte reporter, NF-kappa-B readout (x4A); assay type: cell-based
Procedure: as §2
Each cell supernatant was assayed in quadruplicate. 20 uL of supernatant was used to measure NF-kappa-B (NFkB) and
as §3, §4

[3] = peptide 400 nM + KIN1400 (= 100)
[4] = peptide 400 nM + KIN1400 + C-178 1 uM
[5] = peptide 400 nM + KIN1400 + NFkBi 50 ug/ml
[6] = peptide 400 nM + KIN1400 + SB2021 10 uM
[7] = peptide 400 nM + KIN1400 + cytB 1 uM
[8] = peptide 400 nM + PAM2C + C-178 1 uM
[9] = peptide 400 nM + PAM2C + NFkBi 50 ug/ml
[10] = peptide 400 nM + PAM2C + SB2021 10 uM
[11] = peptide 400 nM + PAM2C + cytB 1 uM
[12] = peptide 400 nM + PAM3C + C-178 1 uM
[13] = peptide 400 nM + PAM3C + NFkBi 50 ug/ml
[14] = peptide 400 nM + PAM3C + SB2021 10 uM
[15] = peptide 400 nM + PAM3C + cytB 1 uM

Compound `N=C(N)NCCC[C@H](NC(=O)CNC(=O)[C@H](CCCCN)NC(=O)[C@H](CO)NC(=O)[C@@H]1CCCN1C(=O)[C@H](CCCNC(=N)N)NC(=O)[C@H](CS)NC(=O)[C@H](CCC(N)=O)NC(=O)[C@H](CCCCN)NC(=O)[C@H](CCCCN)NC(=O)[C@H](CCCCN)NC(=O)[C@H](Cc1ccc(O)cc1)NC(=O)[C@H](Cc1ccccc1)NC(=O)CNC(=O)[C@H](CCCCN)NC(=O)[C@@H](N)CCCCN)C(=O)N[C@@H](CCCCN)C(=O)N[C@@H](CCCNC(=N)N)C(=O)NCC(=O)N[C@@H](Cc1ccccc1)C(=O)N[C@@H](CS)C(=O)N[C@@H](Cc1c[nH]c2ccccc12)C(=O)O` [IM3] (H-KKGFYKKKQCRPSKGRKRGFCW-OH; N-terminus and C-terminus assumed) has a fluorescence ([1]; Calcium, ferrous iron = 100) of 47.6±3.7, a fluorescence ([1]; Cobalt, ferrous iron = 100) of 25.4±2.3 and a fluorescence ([1]; Control (no metal), ferrous iron = 100) of 6.4±3.1. For the same compound, the fluorescence ([1]; Copper, ferrous iron = 100) was 58.4±6.4, the fluorescence ([1]; Ferric iron, ferrous iron = 100) was 94.1±6.6 and the fluorescence ([1]; Ferrous iron, set at 100, 400 ng/well) was 100±2.6. For the same compound, the fluorescence ([1]; Manganese, ferrous iron = 100) was 54.4±11.2, the fluorescence ([1]; Ruthenium, ferrous iron = 100) was 67.8±8.3 and the fluorescence ([1]; Vanadium, ferrous iron = 100) was 53.9±5.5. The fluorescence ([1]; Zinc, ferrous iron = 100) was 71.4±8.3, the fluorescence ([2]; Calcium) was 48,822±11,990 and the fluorescence ([2]; Copper) was 13,644±5566. The fluorescence ([2]; EDTA-treated control) was 2,251±1,186, the fluorescence ([2]; Ferrous iron) was 170,441±11,264 and the SUCC (THP1-Dual monocytes; [3]) was 100. For the same compound, the SUCC (THP1-Dual monocytes; [4]) was 103.2, the SUCC (THP1-Dual monocytes; [5]) was 99.2 and the SUCC (THP1-Dual monocytes; [6]) was 131.6*. It also gave an SUCC (THP1-Dual monocytes; [7]) of 96.1, an SUCC (THP1-Dual monocytes; peptide 400 nM + PAM2C (= 100)) of 100 and an SUCC (THP1-Dual monocytes; [8]) of 96.1. The SUCC (THP1-Dual monocytes; [9]) was 100.1, the SUCC (THP1-Dual monocytes; [10]) was 93.4 and the SUCC (THP1-Dual monocytes; [11]) was 85.1*. The SUCC (THP1-Dual monocytes; peptide 400 nM + PAM3C) was 100, the SUCC (THP1-Dual monocytes; [12]) was 95.3 and the SUCC (THP1-Dual monocytes; [13]) was 101.5. It also gave an SUCC (THP1-Dual monocytes; [14]) of 95.8, an SUCC (THP1-Dual monocytes; [15]) of 95.4 and an NFkB (NF-kappa-B (NFkB); [3]) of 100. The NFkB (NF-kappa-B (NFkB); [4]) was 98.1, the NFkB (NF-kappa-B (NFkB); [5]) was 104.4 and the NFkB (NF-kappa-B (NFkB); [6]) was 131.3**. For the same compound, the NFkB (NF-kappa-B (NFkB); [7]) was 103.5, the NFkB (NF-kappa-B (NFkB); peptide 400 nM + PAM2C (= 100)) was 100 and the NFkB (NF-kappa-B (NFkB); [8]) was 108.0**. For the same compound, the NFkB (NF-kappa-B (NFkB); [9]) was 118.7*, the NFkB (NF-kappa-B (NFkB); [10]) was 65.4** and the NFkB (NF-kappa-B (NFkB); [11]) was 99.8. For the same compound, the NFkB (NF-kappa-B (NFkB); [12]) was 561, the NFkB (NF-kappa-B (NFkB); [13]) was 458** and the NFkB (NF-kappa-B (NFkB); [14]) was 296**. The NFkB (NF-kappa-B (NFkB); [15]) was 576, the NFkB (NF-kappa-B (NFkB); peptide 400 nM + PAM3C, control = 100) was 575 and the NFkB (NF-kappa-B (NFkB); peptide 400 nM, no inducer, control = 100) was 94**.
